From PubChem BioAssay AID248 (DTP/NCI, 2004) come the findings set out here.

Several values for one entry are separate records, joined by “and”; a condition that tells them apart may be missing. Identical values can stand only once. Inconclusive results and toxic doses are left out.

The test deals with L1210 leukemia ip in BDF1 mice, survival T/C. Nature of the test: NCI In Vivo Anticancer Drug Screen. Data for tumor model L1210 Leukemia (intraperitoneal) in B6D2F1 (BDF1) mice. Conditions: endpoint: mean survival time, higher = longer survival. A digest of the protocol: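 In this screen, tumor-bearing mice given compound are compared to those given vehicle, and their survival values are reported as a treated-to-control quotient.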

Setting [1] is: dose: 100.0 mg/kg/injection, schedule: Q04DX003 (ip), vehicle: Klucel (hydroxypropylcellulose) (HPC).
Where [2] appears, read: dose: 200.0 mg/kg/injection, schedule: Q04DX003 (ip), vehicle: Klucel (hydroxypropylcellulose) (HPC).
Where [3] appears, read: dose: 400.0 mg/kg/injection, schedule: Q04DX003 (ip), vehicle: Klucel (hydroxypropylcellulose) (HPC).
Setting [4] is: dose: 50.0 mg/kg/injection, schedule: Q01DX001 (ip), vehicle: carboxymethylcellulose (CMC).
[5] abbreviates: dose: 75.0 mg/kg/injection, schedule: Q01DX001 (ip), vehicle: carboxymethylcellulose (CMC).
Setting [6] is: dose: 100.0 mg/kg/injection, schedule: Q04DX002 (ip), vehicle: Klucel (hydroxypropylcellulose) (HPC).
The mark [7] stands for this setting: dose: 200.0 mg/kg/injection, schedule: Q04DX002 (ip), vehicle: Klucel (hydroxypropylcellulose) (HPC).
Where [8] appears, read: dose: 400.0 mg/kg/injection, schedule: Q04DX002 (ip), vehicle: Klucel (hydroxypropylcellulose) (HPC).
Where [9] appears, read: dose: 100.0 mg/kg/injection, schedule: Q04DX003 (ip), vehicle: saline.
Where [10] appears, read: dose: 200.0 mg/kg/injection, schedule: Q04DX003 (ip), vehicle: saline.
Where [11] appears, read: dose: 100.0 mg/kg/injection, schedule: Q04DX003 (ip), vehicle: saline with Tween-80.
[12] abbreviates: dose: 200.0 mg/kg/injection, schedule: Q04DX003 (ip), vehicle: saline with Tween-80.
[13] abbreviates: dose: 400.0 mg/kg/injection, schedule: Q04DX003 (ip), vehicle: saline with Tween-80.
Setting [14] is: dose: 100.0 mg/kg/injection, schedule: Q01DX001 (ip), vehicle: saline.
Setting [15] is: dose: 200.0 mg/kg/injection, schedule: Q01DX001 (ip), vehicle: saline.
Where [16] appears, read: dose: 400.0 mg/kg/injection, schedule: Q01DX001 (ip), vehicle: saline.
[17] abbreviates: dose: 50.0 mg/kg/injection, schedule: Q01DX009 (ip), vehicle: saline.
The mark [18] stands for this setting: dose: 100.0 mg/kg/injection, schedule: Q01DX009 (ip), vehicle: saline.
The mark [19] stands for this setting: dose: 200.0 mg/kg/injection, schedule: Q01DX009 (ip), vehicle: saline.
[20] abbreviates: dose: 100.0 mg/kg/injection, schedule: Q01DX009 (ip), vehicle: saline with Tween-80.
[21] abbreviates: dose: 200.0 mg/kg/injection, schedule: Q01DX009 (ip), vehicle: saline with Tween-80.
Where [22] appears, read: dose: 400.0 mg/kg/injection, schedule: Q01DX009 (ip), vehicle: saline with Tween-80.
The mark [23] stands for this setting: dose: 100.0 mg/kg/injection, schedule: Q01DX009 (ip), vehicle: Klucel (hydroxypropylcellulose) (HPC).

For the molecule `Cc1cc(C)c(C(N)=O)c(N)n1`, the T/C under setting [1] was 105 % of control, the T/C under setting [2] was 90 % of control and the T/C under setting [3] was 106 % of control.
As to `O=NN(CCCl)C(=O)Nc1ccc(C(F)(F)F)cc1`, the T/C is 154 % of control (dose: 4.6 mg/kg/injection, schedule: Q01DX Z (ip), vehicle: carboxymethylcellulose (CMC)); 166 % of control (dose: 9.37 mg/kg/injection, schedule: Q01DX Z (ip), vehicle: carboxymethylcellulose (CMC)); 190 % of control (dose: 18.75 mg/kg/injection, schedule: Q01DX Z (ip), vehicle: carboxymethylcellulose (CMC)); 108 % of control (dose: 37.5 mg/kg/injection, schedule: Q01DX Z (ip), vehicle: carboxymethylcellulose (CMC)); 151 % of control under setting [4]; 167 % of control under setting [5].
With `Fc1cc(N(CCCl)CCCl)ccc1CNCCCNCc1ccc(N(CCCl)CCCl)cc1F`, the T/C under setting [4] is 93 % of control.
Regarding `COc1ccccc1NC(=O)N(Cc1ccccc1)C(C)(C)C`, the T/C under setting [6] is 95 % of control, the T/C under setting [7] was 100 % of control and the T/C under setting [8] is 88 % of control.
As to `CC(C)CCNNCCC(C)C`, the T/C is 108 % of control (dose: 75.0 mg/kg/injection, schedule: Q01DX001 (ip), vehicle: other) and 104 % of control (dose: 150.0 mg/kg/injection, schedule: Q01DX001 (ip), vehicle: other).
On to `O=C(Nc1cccc(C(F)(F)F)c1)Nc1c(Oc2ccc(Cl)c(Cl)c2)ccc(Cl)c1S(=O)(=O)O`, for which the T/C under setting [9] is 103 % of control and the T/C under setting [10] is 94 % of control.
Take `O/N=C1\CCc2ccccc2C(O)C1c1ccccc1` (stereo not drawn): the T/C is, setting by setting: under setting [11], 97 % of control; under setting [12], 102 % of control; under setting [13], 88 % of control.
`CC1CN1S(=O)(=O)N1CC1C` (stereo not drawn): under setting [4], the T/C is 111 % of control.
On to `CC(C)C1NC(=O)C(Cc2c[nH]c3ccccc23)NC1=O` (stereo not drawn), for which the T/C was 101 % of control under setting [14], 101 % of control under setting [15] and 91 % of control under setting [16].
Regarding `CN(C)C(C)(C)CNc1ccc(C(=O)O)cc1`, the T/C was 96 % of control (dose: 6.0 mg/kg/injection, schedule: Q01DX009 (ip), vehicle: saline); 97 % of control (dose: 12.0 mg/kg/injection, schedule: Q01DX009 (ip), vehicle: saline); 100 % of control and 98 % of control (dose: 25.0 mg/kg/injection, schedule: Q01DX009 (ip), vehicle: saline); 109 % of control under setting [17]; 98 % of control under setting [9]; 101 % of control under setting [10].
As for `CCCCCCCCCCCCOP(N)(=O)OCCCCCCCCCCCC`, the T/C under setting [17] is 90 % of control; the T/C under setting [18] was 88 % of control; the T/C under setting [9] is 94 % of control; the T/C under setting [19] was 88 % of control; the T/C under setting [10] was 90 % of control.
In the case of `CC(=O)OC1CCC2(C)C(CCC3C2C(=O)C(OC(C)=O)C2(C)C3CC3OC4(CCC(C)CO4)C(C)C32)C1` (stereo not drawn), the T/C was 90 % of control under setting [20], 95 % of control under setting [21] and 101 % of control under setting [22].
On to `Oc1c(Cl)cc(Cl)c(Cl)c1Cc1c(O)c(Cl)cc(Cl)c1Cl`, for which the T/C reads like this: (dose: 12.5 mg/kg/injection, schedule: Q04DX003 (ip), vehicle: Klucel (hydroxypropylcellulose) (HPC)) 109 % of control; (dose: 25.0 mg/kg/injection, schedule: Q04DX003 (ip), vehicle: Klucel (hydroxypropylcellulose) (HPC)) 100 % of control; (dose: 50.0 mg/kg/injection, schedule: Q04DX003 (ip), vehicle: Klucel (hydroxypropylcellulose) (HPC)) 98 % of control.
In the case of `OC1OC(COC(c2ccccc2)(c2ccccc2)c2ccccc2)C(O)C(O)C1O` (stereo not drawn), the T/C is 95 % of control under setting [17]; 100 % of control and 102 % of control under setting [20]; 98 % of control under setting [18]; 102 % of control under setting [11]; 102 % of control under setting [9]; 105 % of control (dose: 100.0 mg/kg/injection, schedule: Q04DX003 (ip), vehicle: water). Further, the T/C under setting [21] was 95 % of control and 96 % of control; the T/C under setting [19] was 95 % of control; the T/C under setting [12] is 96 % of control; the T/C under setting [10] was 93 % of control; the T/C (dose: 200.0 mg/kg/injection, schedule: Q04DX003 (ip), vehicle: water) was 97 % of control; the T/C under setting [22] is 104 % of control. In addition, the T/C is, setting by setting: under setting [13], 94 % of control; (dose: 400.0 mg/kg/injection, schedule: Q04DX003 (ip), vehicle: water) 96 % of control.
On to `NC(=O)CNC(=O)C(CSCc1ccccc1)NC(=O)OCc1ccccc1` (stereo not drawn), for which the T/C is, setting by setting: (dose: 25.0 mg/kg/injection, schedule: Q01DX009 (ip), vehicle: Klucel (hydroxypropylcellulose) (HPC)) 89 % of control; (dose: 50.0 mg/kg/injection, schedule: Q01DX009 (ip), vehicle: Klucel (hydroxypropylcellulose) (HPC)) 93 % of control; under setting [23], 94 % of control; under setting [1], 90 % of control.
`O=[N+]([O-])c1cc(C(F)(F)F)ccc1/C=C/c1ccccc1Br`: the T/C runs as follows: under setting [11], 105 % of control; under setting [12], 97 % of control; under setting [13], 101 % of control.
As for `CCCCCCCCC(C(O)c1ccccc1)C(O)(C(F)(F)F)C(F)(F)F` (stereo not drawn), the T/C runs as follows: under setting [20], 95 % of control; under setting [21], 105 % of control; under setting [22], 97 % of control.
Take `CCC(=O)C(=O)Cc1cc[n+]([O-])c2ccccc12`: the T/C is 102 % of control under setting [1], 97 % of control under setting [2] and 113 % of control under setting [3].
`Cc1ccc(SC2=C(Br)C(=O)c3ccccc3C2=O)cc1`: the T/C is, setting by setting: (dose: 37.5 mg/kg/injection, schedule: Q01DX001 (ip), vehicle: carboxymethylcellulose (CMC)) 92 % of control; under setting [5], 94 % of control; (dose: 150.0 mg/kg/injection, schedule: Q01DX001 (ip), vehicle: carboxymethylcellulose (CMC)) 103 % of control.
For `CC1CC(NC(=S)NC(=O)c2ccccc2Cl)CC(C)(C)C1` (stereo not drawn), the T/C was 98 % of control (dose: 100.0 mg/kg/injection, schedule: Q04DX002 (ip), vehicle: saline with Tween-80); 113 % of control (dose: 200.0 mg/kg/injection, schedule: Q04DX002 (ip), vehicle: saline with Tween-80); 102 % of control (dose: 400.0 mg/kg/injection, schedule: Q04DX002 (ip), vehicle: saline with Tween-80).
On to `C=CCCCCC/C=C/CCCCCC`, for which the T/C is 89 % of control under setting [20] and 92 % of control under setting [21].
For `S=C(C/C=C/CC(=S)SN(c1ccccc1)c1ccccc1)SN(c1ccccc1)c1ccccc1`, the T/C under setting [23] is 91 % of control; the T/C (dose: 200.0 mg/kg/injection, schedule: Q01DX009 (ip), vehicle: Klucel (hydroxypropylcellulose) (HPC)) is 95 % of control; the T/C (dose: 400.0 mg/kg/injection, schedule: Q01DX009 (ip), vehicle: Klucel (hydroxypropylcellulose) (HPC)) was 90 % of control.
With `CC(C)C(=O)Nc1cccc(O)c1`, the T/C was 90 % of control under setting [20] and 90 % of control under setting [21].
For the molecule `O=CO`, the T/C was 100 % of control under setting [14], 98 % of control under setting [15] and 93 % of control under setting [16].
For the molecule `O=S(=O)(O)CCC(O)S(=O)(=O)O` (stereo not drawn), the T/C is, setting by setting: under setting [6], 98 % of control; under setting [7], 92 % of control; under setting [8], 92 % of control.
Consider `O=C(NCCc1ccccc1)C1CCN(CCc2ccccc2)CC1`, for which the T/C (dose: 100.0 mg/kg/injection, schedule: Q01DX001 (ip), vehicle: other) is 107 % of control.
